smiles,measurement,setting,value
C=C1CCC[C@]2(C)C[C@]3(O)OC(=O)C(C)=C3C[C@@H]12,solubility (mole fraction),"in diethyl ether, 283.2 K",0.00277
same,solubility (mole fraction),"in diethyl ether, 288.2 K",0.00375
same,solubility (mole fraction),"in diethyl ether, 293.2 K",0.00562
same,solubility (mole fraction),"in diethyl ether, 298.2 K",0.00738
same,solubility (mole fraction),"in diethyl ether, 303.2 K",0.00939
same,solubility (mole fraction),"in ethanol, 283.2 K",0.00443
same,solubility (mole fraction),"in ethanol, 288.2 K",0.00547
same,solubility (mole fraction),"in ethanol, 293.2 K",0.00673
same,solubility (mole fraction),"in ethanol, 298.2 K",0.00809
same,solubility (mole fraction),"in ethanol, 303.2 K",0.00966
same,solubility (mole fraction),"in ethanol, 308.2 K",0.0113
same,solubility (mole fraction),"in ethanol, 313.2 K",0.0131
same,solubility (mole fraction),"in ethanol, 318.2 K",0.0151
same,solubility (mole fraction),"in ethanol, 323.2 K",0.0171
same,solubility (mole fraction),"in ethyl acetate, 283.2 K",0.0224
same,solubility (mole fraction),"in ethyl acetate, 288.2 K",0.0228
same,solubility (mole fraction),"in ethyl acetate, 293.2 K",0.0236
same,solubility (mole fraction),"in ethyl acetate, 298.2 K",0.0242
same,solubility (mole fraction),"in ethyl acetate, 303.2 K",0.0252
same,solubility (mole fraction),"in ethyl acetate, 308.2 K",0.0261
same,solubility (mole fraction),"in ethyl acetate, 313.2 K",0.0271
same,solubility (mole fraction),"in ethyl acetate, 318.2 K",0.0282
same,solubility (mole fraction),"in ethyl acetate, 323.2 K",0.0293
same,solubility (mole fraction),"in n-hexane, 283.2 K",2.44e-05
same,solubility (mole fraction),"in n-hexane, 288.2 K",4.12e-05
same,solubility (mole fraction),"in n-hexane, 293.2 K",6.39e-05
same,solubility (mole fraction),"in n-hexane, 298.2 K",8.32e-05
same,solubility (mole fraction),"in n-hexane, 303.2 K",0.000113
same,solubility (mole fraction),"in n-hexane, 308.2 K",0.000153
same,solubility (mole fraction),"in n-hexane, 313.2 K",0.000202
same,solubility (mole fraction),"in n-hexane, 318.2 K",0.000272
same,solubility (mole fraction),"in n-hexane, 323.2 K",0.000336

# From BigSolDB 2.1
